Columns and labels:
Type in all cases: in vivo
[1] = tested on: skin of the abdomen; test: Controlled burn damage in rats, albumin leakage measured with Evans Blue; settings: n=10, 10 mg/kg injection 15 minutes after the burn, then infusion of 0.2 mg/min for 2 hours
Description: A controlled burn damage is induced in rats as a heat probe is applied to the skin of the abdomen with a constant pressure. The probe has a surface temperature of […] and is allowed to deliver a specific amount of energy until the temperature is lowered to 37°C. 15 minutes after the induction of the burn an injection of saline (control) or D-myo-inositol-1.2.6-trisphosphate (IP₃) was performed. After this first injection (10 mg/kg IP₃) an infusion of 0.2 mg/min IP₃ followed for 2 hours. 90 minutes after the damage Evans Blue is injected to the animals. This compound binds to albumin, which leaks into the damaged tissue. The amount of albumin leakage is then easily determined by measuring the intensity of colour of Evans Blue in different parts of the tissue. After another 30 minutes the animals are killed and the tissue damage is determined. […] Thus IP₃ is an protective substance against tissue damage caused by burns.

[2] = tested on: mice; test: Toxicity after intraperitoneal injection of very high doses; settings: 160 mg/kg body weight by intraperitoneal injection
[3] = tested on: rat hind-paw; test: Carrageenan-induced oedema of the rat hind-paw; settings: male rats, 1000 mg/kg injected 2 hours and 1 hour before carrageenan; four hours after induction of the damage
Description: Injection of carrageenan into the subplanar surface of the rat hind-paw induces a tissue damage that results in pronounced oedema. The degree of oedema can be reproducibly quantified by measuring paw circumference.
Two groups of five male rats were injected 2 hours and 1 hour before injection of carrageenan with 1000 mg/kg D-myo-inositol-1.2.6-trisphosphate (IP₃) or Krebs ringer solution (control) respectively.
Measurement of the paw diameter was made at hourly intervals.

[4] = tested on: shaved dorsal skin of rabbits; test: Local oedema formation in rabbit dorsal skin in response to mediators of increased microvascular permeability, Evans Blue; settings: 50 mg/kg directly after injection of the mediators
Description: Local oedema formation is measured in the shaved dorsal skin of rabbits in response to mediators of increased microvascular permeability, such as histamine, bradykinin and platelet activating factor (PAF). When a vasodilator such as calcitonin gene-related peptide (CGRP) is administered together with the mediators the blood flow is increased and this system is established for testing compounds that reduces oedema formation.
Prior to injection of the different mediators Evans Blue is injected into the anaesthetized animals. The distribution of Evans Blue is a measurement of the tissue damage and oedema formation. Directly after injection of the mediators either saline (control) or 50 mg/kg of D-myo-inositol-1.2.6-trisphos phate (IP₃) are performed.
The results are shown below as per cent inhibition of IP₃ compared to control.

[5] = tested on: hamster cheek pouch; test: Vascular permeability and bleeding induced by histamine in the hamster cheek pouch; settings: 80 min period
Description: Vascular permeability and bleeding induced by histamine in the hamster cheek pouch was determined in the presence of D-myo-inositol-1.2.6-trisphosphate (IP₃) compared to control. Male hamsters were fasted overnight and anaesthetised with sodium pentobarbitone. Infusion was performed through the jugular vein. Injection of histamine (2.7 mg/kg) was preceded by either saline (control) or IP₃ (5.0 mg/kg).

O=P(O)(O)OC1[C@H](OP(=O)(O)O)[C@H](O)C(O)[C@H](O)[C@H]1OP(=O)(O)O (stereo partly drawn) [IP₃, D-myo-inositol-1.2.6-trisphosphate]
burn damage compared to control [1]: significantly reduced | toxic effects [2]: no toxic effects | reduces the oedema as compared to control [3]: 40% | % inhibition with IP₃ compared to control ([4]; mediator Bradykinin): 64% | % inhibition with IP₃ compared to control ([4]; mediator Histamine): 61% | % inhibition with IP₃ compared to control ([4]; mediator PAF): 64% | % inhibition ([5]; inhibition of petechiae versus saline control, histamine 2.7 mg/kg, IP₃ 5.0 mg/kg): 88% | number of petechiae ([5]; male hamsters, histamine 2.7 mg/kg preceded by IP₃ 5.0 mg/kg, infusion through jugular vein): 1.0
